pIC50: −log10 of the molar value.
Each compound was assayed against LSD-1 enzyme (Homo sapiens (Human), UniProt O60341) (assay: LANCE LSD1/KDM1A demethylase assay (LSD1 histone demethylase biochemical assay)). Details: 1 nM LSD-1 enzyme, 1 hour preincubation at 25° C., Biotin-labeled Histone H3 peptide substrate.
Protocol: Example A: LSD1 Histone Demethylase Biochemical Assay
LANCE LSD1/KDM1A demethylase assay—10 μL of 1 nM LSD-1 enzyme (ENZO BML-SE544-0050) in the assay buffer (50 mM Tris, pH 7.5, 0.01% Tween-20, 25 mM NaCl, 5 mM DTT) were preincubated for 1 hour at 25° C. with 0.8 μL compound/DMSO dotted in black 384 well polystyrene plates. […] Reactions were stopped by addition of 10 μL 1×LANCE Detection Buffer (PerkinElmer CR97-100) supplemented with 1.5 nM Eu-anti-unmodified H3K4 Antibody (PerkinElmer TRF0404), and 225 nM LANCE Ultra Streptavidin (PerkinElmer TRF102) along with 0.9 mM Tranylcypromine-HCl (Millipore 616431). After stopping the reactions plates were incubated for 30 minutes and read on a PHERAstar FS plate reader (BMG Labtech).
Work on `Cc1cc(-c2c(-c3ccc(C#N)cc3)nc(OC[C@@H]3CCCN(C)C3)n3ccnc23)ccc1CO` [Example 35, 4-(8-[4-(hydroxymethyl)-3-methylphenyl]-5-{[(3R)-1-methylpiperidin-3-yl]methoxy}imidazo[1,2-c]pyrimidin-7-yl)benzonitrile] yielded a pIC50 of at least 7.30. `Cc1cc(-c2c(-c3ccc(C#N)cc3)nc(N3CCC(N(C)C)CC3)n3ccnc23)cnc1C` [Example 68, 4-[5-[4-(dimethylamino)piperidin-1-yl]-8-(5,6-dimethylpyridin-3-yl)imidazo[1,2-c]pyrimidin-7-yl]benzonitrile] gave a pIC50 of at least 7.30. In the case of `CN(C)C1CCN(c2nc(-c3ccc(C#N)cc3)c(-c3ccc4c(c3)CC(O)C4)c3nccn23)CC1` (centres unmarked) [Example 122, 4-[5-[4-(dimethylamino)piperidin-1-yl]-8-(2-hydroxy-2,3-dihydro-1H-inden-5-yl)imidazo[1,2-c]pyrimidin-7-yl]benzonitrile], the pIC50 was at least 7.30. In the case of `CCN1CCC[C@@H](COc2nc(-c3ccc(C#N)cc3)c(-c3ccc4c(c3)oc(=O)n4C)c3nccn23)C1` [Example 55, 4-[5-{1[(3R)-1-ethylpiperidin-3-yl]methoxy}-8-(3-methyl-2-oxo-2,3-dihydro-1,3-benzoxazol-6-yl)imidazo[1,2-c]pyrimidin-7-yl]benzonitrile], the pIC50 was at least 7.30. In the case of `CN(C)C1CCN(c2nc(-c3ccc(C#N)cc3)c(-c3ccc4c(cnn4C)c3)c3nccn23)CC1` [Example 46, 4-[5-[4-(dimethylamino)piperidin-1-yl]-8-(1-methyl-1H-indazol-5-yl)imidazo[1,2-c]pyrimidin-7-yl]benzonitrile], the pIC50 was at least 7.30. In the case of `CCN1CCC[C@@H](COc2nc(-c3ccc(C#N)cc3)c(-c3ccc(C)c(CO)c3)c3nccn23)C1` [Example 99, 4-{5-{[(3R)-1-ethylpiperidin-3-yl]methoxy}-8-[3-(hydroxymethyl)-4-methylphenyl]imidazo[1,2-c]pyrimidin-7-yl}benzonitrile], the pIC50 was at least 7.30. For `CN1CCC[C@@H](COc2nc(-c3ccc(C#N)cc3)c(-c3ccc4c(c3)nc(C(F)F)n4C)c3nccn23)C1` [Example 64, 4-(8-[2-(difluoromethyl)-1-methyl-1H-benzimidazol-5-yl]-5-{[(3R)-1-methylpiperidin-3-yl]methoxy}imidazo[1,2-c]pyrimidin-7-yl)benzonitrile], the pIC50 was at least 7.30. Work on `CN1CCC[C@@H](COc2nc(-c3ccc(C#N)cc3)c(-c3ccc(N4CCCC4=O)nc3)c3nccn23)C1` [Example 16, 4-{5-{[(3R)-1-methylpiperidin-3-yl]methoxy}-8-[6-(2-oxopyrrolidin-1-yl)pyridin-3-yl]imidazo[1,2-c]pyrimidin-7-yl}benzonitrile] yielded a pIC50 of 6.30 to 7.30. `CN(C)C1CCN(c2nc(-c3ccc(C#N)cc3)c(-c3ccc4c(c3)oc(=O)n4C)c3nccn23)CC1` [Example 47, 4-[5-[4-(dimethylamino)piperidin-1-yl]-8-(3-methyl-2-oxo-2,3-dihydro-1,3-benzoxazol-6-yl)imidazo[1,2-c]pyrimidin-7-yl]benzonitrile] gave a pIC50 of at least 7.30. Work on `CN(C)C1CCN(c2nc(-c3ccc(C#N)cc3)c(-c3ccc4c(c3F)n(C)c(=O)n4C)c3nccn23)CC1` [Example 127, 4-[5-[4-(dimethylamino)piperidin-1-yl]-8-(4-fluoro-1,3-dimethyl-2-oxo-2,3-dihydro-1H-benzimidazol-5-yl)imidazo[1,2-c]pyrimidin-7-yl]benzonitrile] yielded a pIC50 of at least 7.30. Compound `CN(C)c1ncc(-c2c(-c3ccc(C#N)cc3)nc(N3CCC(N(C)C)CC3)n3ccnc23)cc1F` [Example 82, 4-{8-[6-(dimethylamino)-5-fluoropyridin-3-yl]-5-[4-(dimethylamino)piperidin-1-yl]imidazo[1,2-c]pyrimidin-7-yl}benzonitrile] has a pIC50 of at least 7.30. `CN1CCC[C@@H](COc2nc(-c3ccc(C#N)cc3)c(-c3ccc4c(c3)CC(O)C4)c3nccn23)C1` (stereo partly drawn) [Example 124, 4-(8-(2-hydroxy-2,3-dihydro-1H-inden-5-yl)-5-{[(3R)-1-methylpiperidin-3-yl]methoxy}imidazo[1,2-c]pyrimidin-7-yl)benzonitrile] was tested, and the pIC50 was at least 7.30. In the case of `CC(C)c1ccc(-c2c(-c3ccc(C#N)cc3)nc(OC[C@@H]3CCCN(C)C3)n3ccnc23)cn1` [Example 108, 4-(8-(6-isopropylpyridin-3-yl)-5-{[(3R)-1-methylpiperidin-3-yl]methoxy}imidazo[1,2-c]pyrimidin-7-yl)benzonitrile], the pIC50 was 6.30 to 7.30. `CN(C)C1CCN(c2nc(-c3ccc(C#N)cc3)c(-c3cnc4c(ccn4C)c3)c3nccn23)CC1` [Example 125, 4-[5-[4-(dimethylamino)piperidin-1-yl]-8-(1-methyl-1H-pyrrolo[2,3-b]pyridin-5-yl)imidazo[1,2-c]pyrimidin-7-yl]benzonitrile] showed a pIC50 of at least 7.30. `CCc1ccc(-c2c(-c3ccc(C#N)cc3)nc(OC[C@@H]3CCCN(C)C3)n3ccnc23)cn1` [Example 107, 4-(8-(6-ethylpyridin-3-yl)-5-{[(3R)-1-methylpiperidin-3-yl]methoxy}imidazo[1,2-c]pyrimidin-7-yl)benzonitrile] showed a pIC50 of 6.30 to 7.30. For `Cc1ncc(-c2c(-c3ccc(C#N)cc3)nc(N3CCC(N(C)C)CC3)n3ccnc23)cc1C#N` [Example 66, 5-{7-(4-cyanophenyl)-5-[4-(dimethylamino)piperidin-1-yl]imidazo[1,2-c]pyrimidin-8-yl}-2-methylnicotinonitrile], the pIC50 was 6.30 to 7.30. Work on `CN1CCC[C@@H](COc2nc(-c3ccc(C#N)cc3)c(-c3ccc(CO)c(F)c3)c3nccn23)C1` [Example 31, 4-(8-[3-fluoro-4-(hydroxymethyl)phenyl]-5-{[(3R)-1-methylpiperidin-3-yl]methoxy}imidazo[1,2-c]pyrimidin-7-yl)benzonitrile] yielded a pIC50 of at least 7.30. With `CN1CC[C@@H](COc2nc(-c3ccc(C#N)cc3)c(-c3ccc4c(c3)oc(=O)n4C)c3nccn23)C1` [Example 26, 4-(8-(3-methyl-2-oxo-2,3-dihydro-1,3-benzoxazol-6-yl)-5-{[(3R)-1-methylpyrrolidin-3-yl]methoxy}imidazo[1,2-c]pyrimidin-7-yl)benzonitrile] the pIC50 was 6.30 to 7.30. With `CN1CCC[C@@H](COc2nc(-c3ccc(C#N)cc3)c(-c3cc(F)c4c(c3)oc(=O)n4C)c3nccn23)C1` [Example 59, 4-(8-(4-fluoro-3-methyl-2-oxo-2,3-dihydro-1,3-benzoxazol-6-yl)-5-{[(3R)-1-methylpiperidin-3-yl]methoxy}imidazo[1,2-c]pyrimidin-7-yl)benzonitrile] the pIC50 was at least 7.30. `Cc1nc2cc(-c3c(-c4ccc(C#N)cc4)nc(N4CCC(N(C)C)CC4)n4ccnc34)ccc2n1C` [Example 63, 4-[5-[4-(dimethylamino)piperidin-1-yl]-8-(1,2-dimethyl-1H-benzimidazol-5-yl)imidazo[1,2-c]pyrimidin-7-yl]benzonitrile] was tested, and the pIC50 was at least 7.30. Compound `Cc1ccc(-c2c(-c3ccc(C#N)cc3)nc(OC[C@@H]3CCN(C)C3)n3ccnc23)cc1` [Example 2, 4-(8-(4-methylphenyl)-5-{[(3R)-1-methylpyrrolidin-3-yl]methoxy}imidazo[1,2-c]pyrimidin-7-yl)benzonitrile] has a pIC50 of 6.30 to 7.30. `Cc1cc(-c2c(-c3ccc(C#N)cc3)nc(OC[C@@H]3CCCN(C)C3)n3ccnc23)cc(F)c1CO` [Example 30, 4-(8-[3-fluoro-4-(hydroxymethyl)-5-methylphenyl]-5-{[(3R)-1-methylpiperidin-3-yl]methoxy}imidazo[1,2-c]pyrimidin-7-yl)benzonitrile] was tested, and the pIC50 was at least 7.30. `CN(C)C1CCN(c2nc(-c3ccc(C#N)cc3)c(-c3ccc(N4CCCC4=O)nc3)c3nccn23)CC1` [Example 50, 4-{5-[4-(dimethylamino)piperidin-1-yl]-8-[6-(2-oxopyrrolidin-1-yl)pyridin-3-yl]imidazo[1,2-c]pyrimidin-7-yl}benzonitrile] showed a pIC50 of 6.30 to 7.30. With `COc1ncc(-c2c(-c3ccc(C#N)cc3)nc(OC[C@@H]3CCCN(C)C3)n3ccnc23)cc1Cl` [Example 88, 4-(8-(5-chloro-6-methoxypyridin-3-yl)-5-{[(3R)-1-methylpiperidin-3-yl]methoxy}imidazo[1,2-c]pyrimidin-7-yl)benzonitrile] the pIC50 was at least 7.30. `Cc1ncc(-c2c(-c3ccc(C#N)cc3)nc(OC[C@@H]3CCCN(C)C3)n3ccnc23)cc1C#N` [Example 70, 5-(7-(4-cyanophenyl)-5-{[(3R)-1-methylpiperidin-3-yl]methoxy}imidazo[1,2-c]pyrimidin-8-yl)-2-methylnicotinonitrile] was tested, and the pIC50 was at least 7.30. Work on `CN(C)C1CCN(c2nc(-c3ccc(C#N)cc3)c(-c3ccc4c(c3)nc(C(F)F)n4C)c3nccn23)CC1` [Example 52, 4-{8-[2-(difluoromethyl)-1-methyl-1H-benzimidazol-5-yl]-5-[4-(dimethylamino)piperidin-1-yl]imidazo[1,2-c]pyrimidin-7-yl}benzonitrile] yielded a pIC50 of at least 7.30. Compound `CN(C)C1CCN(c2nc(-c3ccc(C#N)cc3)c(-c3ccc4c(c3)C(O)CC4)c3nccn23)CC1` (centres unmarked) [Example 121, 4-[5-[4-(dimethylamino)piperidin-1-yl]-8-(3-hydroxy-2,3-dihydro-1H-inden-5-yl)imidazo[1,2-c]pyrimidin-7-yl]benzonitrile] has a pIC50 of at least 7.30. With `CN1CCC[C@@H](COc2nc(-c3ccc(C#N)cc3)c(-c3ccc4cnn(C)c4c3)c3nccn23)C1` [Example 18, 4-(8-(1-methyl-1H-indazol-6-yl)-5-{[(3R)-1-methylpiperidin-3-yl]methoxy}imidazo[1,2-c]pyrimidin-7-yl)benzonitrile] the pIC50 was 6.30 to 7.30. For `CN(C)C(=O)N(C)Cc1ccc(-c2c(-c3ccc(C#N)cc3)nc(N3CCC(N(C)C)CC3)n3ccnc23)cc1F` [Example 97, N-(4-{7-(4-cyanophenyl)-5-[4-(dimethylamino)piperidin-1-yl]imidazo[1,2-c]pyrimidin-8-yl}-2-fluorobenzyl)-N,N′,N′-trimethylurea], the pIC50 was at least 7.30.

From patent publication US9944647B2 (Incyte Corporation, priority 2015, dated 2018)
